# Values joined by “and” are separate entries in the source; they are usually repeats but may differ in a detail not shown here. Equal entries are not always repeated. “Also recorded” adds a separate entry of the source.
# Assays:
# [1] = reversed phase HPLC analysis of components of plasma radioactivity; type: in vivo, baboon (Papio anubis)
# serotonin transporters = assay: SPECT binding potential; type: in vivo, baboon (Papio anubis)
# dopamine transporter = conditions: cited from earlier work
# 5-HT transporter = conditions: cited from earlier work
# [2] = type: in vivo, baboon (Papio anubis)
# [3] = plasma protein binding by the ultrafiltration method; type: in vitro ADME, baboon (Papio anubis)
# [4] = 0.5 mg/kg IV at 8 h post-radiotracer, n=2
# [5] = 3 min after injection, arterial plasma
# [6] = 5 min after injection, arterial plasma
# [7] = 10 min after injection, arterial plasma
# [8] = 30 min after injection, arterial plasma
# [9] = 60 min after injection, arterial plasma
# [10] = 120 min after injection, arterial plasma
# [11] = 180 min after injection, arterial plasma
# [12] = 360 min after injection, arterial plasma
# [13] = MRTM2 analysis, bolus only study, first animal
# [14] = average of equilibrium scans prior to displacement, same animal as MRTM2
structure (smiles),measurement,setting,value
"COC(=O)C(c1ccccc1)C1CCCCN1 (centres unmarked) [Methylphenidate, methylphenidate]","Percent Displacement in [123I]p ZIENT (BPND), Basal Ganglia",serotonin transporter; [4],-4%
same,"Percent Displacement in [123I]p ZIENT (BPND), Brainstem",serotonin transporter; [4],-11%
same,"Percent Displacement in [123I]p ZIENT (BPND), Diencephalon",serotonin transporter; [4],-5%
same,"Percent Displacement in [123I]p ZIENT (BPND), Hippocampus",serotonin transporter; [4],-8%
same,"Percent Displacement in [123I]p ZIENT (BPND), Temporal Cortex",serotonin transporter; [4],-1%
same,"displacement of [123I]p ZIENT in all regions studied, in words","serotonin transporter; IV at 8 h post-radiotracer, fluoxetine 1.5, 2.5, citalopram 5, methylphenidate 0.5, nisoxetine 1 mg/kg",no significant changes
"COC(=O)C1C2CCC(CC1c1ccc(/C=C\I)cc1)N2 (stereo not drawn) [[^123I]p ZIENT, 2β-carbomethoxy-3β-(4′-((Z)-2-iodoethenyl)phenyl)nortropane]","Relative proportion of plasma radioactivity, Parent Compound","[1]; 1 min after injection, arterial plasma",69%
same,"Relative proportion of plasma radioactivity, Parent Compound",[1]; [5],69%
same,"Relative proportion of plasma radioactivity, Polar Fraction (metabolite)",[1]; [5],5%
same,combined two polar metabolite fractions as percent of total plasma activity,[1]; 3 min post-injection,31%
same,"Relative proportion of plasma radioactivity, Parent Compound",[1]; [6],65%
same,"Relative proportion of plasma radioactivity, Polar Fraction (metabolite)",[1]; [6],10%
same,"Relative proportion of plasma radioactivity, Parent Compound",[1]; [7],43%
same,"Relative proportion of plasma radioactivity, Polar Fraction (metabolite)",[1]; [7],41%
same,"Relative proportion of plasma radioactivity, Parent Compound",[1]; [8],16%
same,"Relative proportion of plasma radioactivity, Polar Fraction (metabolite)",[1]; [8],78%
same,"Relative proportion of plasma radioactivity, Parent Compound",[1]; [9],10%
same,"Relative proportion of plasma radioactivity, Polar Fraction (metabolite)",[1]; [9],87%
same,"Relative proportion of plasma radioactivity, Parent Compound",[1]; [10],5%
same,"Relative proportion of plasma radioactivity, Polar Fraction (metabolite)",[1]; [10],94%
same,"Relative proportion of plasma radioactivity, Parent Compound",[1]; [11],4%
same,"Relative proportion of plasma radioactivity, Polar Fraction (metabolite)",[1]; [11],95%
same,combined two polar metabolite fractions as percent of total plasma activity,[1]; 180 min post-injection,96%
same,"Relative proportion of plasma radioactivity, Parent Compound",[1]; [12],3%
same,"Relative proportion of plasma radioactivity, Polar Fraction (metabolite)",[1]; [12],96%
same,time of peak level of radioactivity in arterial plasma,[1]; after bolus injection,4 to 7 min
same,time of peak of the transient fraction,[1]; arterial plasma,3 to 5 min
same,unmetabolized parent as proportion of plasma radioactivity,[1]; at the time of peak level of radioactivity in arterial plasma (4-7 min),69%
same,lipophilic radiolabeled metabolites entering the brain,"[1]; baboon arterial plasma, HPLC",no detection; also recorded: detected no radiometabolites that are capable of entering the brain
same,"transient fraction at its peak, proportion of plasma radioactivity",[1]; peak at 3-5 min,26%
same,BPND basal ganglia,serotonin transporters; [13],0.97
same,BPND brainstem,serotonin transporters; [13],1.34
same,BPND diencephalon,serotonin transporters; [13],1.48
same,BPND hippocampus,serotonin transporters; [13],0.49
same,BPND temporal cortex,serotonin transporters; [13],0.39
same,BPND basal ganglia,serotonin transporters; [14],0.81
same,BPND brainstem,serotonin transporters; [14],1.34
same,BPND diencephalon,serotonin transporters; [14],1.04
same,BPND hippocampus,serotonin transporters; [14],0.82
same,BPND temporal cortex,serotonin transporters; [14],0.22
same,BPND basal ganglia,serotonin transporters; second animal,2.9
same,BPND brainstem,serotonin transporters; second animal,4.32
same,BPND diencephalon,serotonin transporters; second animal,3.83
same,BPND hippocampus,serotonin transporters; second animal,2.07
same,BPND temporal cortex,serotonin transporters; second animal,1.28
same,specificity for binding to the 5-HT transporter compared to the dopamine transporter,dopamine transporter,100 fold
same,SERT binding affinity,5-HT transporter,~0.05 nM
same,time of peak whole brain uptake,[2]; bolus IV injection,74 min
same,"whole brain uptake, percent of injected dose","[2]; bolus IV injection, at peak (74 min)",2.3%
same,time at which equilibrium was established,[2]; bolus to constant infusion at a ratio of 9.0 h,4 to 8 h
same,change per hour at equilibrium,"[2]; bolus to constant infusion, between 4-8 h",< 5%
same,protein bound in plasma,[3]; first of the two baboons,93.1± 0.3% and 93%
same,protein bound in plasma,[3]; second of the two baboons,89.8 ± 0.7% and 90%

# From paper PMC2901233 (Nuclear medicine and biology, 2010)
